Where “and” joins values, the source holds several entries; their conditions need not be identical. Equal values may be shown once.
Assays:
[1] = test system: T1, Human FXa (Homo sapiens); assay: Anti-FXa activity, chromogenic substrate S-2765 with antithrombin; format: biochemical; conditions: for anti-FXa activity after incubation with heparanase: after heparanase digestion, digested byproduct; for IC50: human FXa, antithrombin, S-2765, read-out: anti-FXa activity, calculated IC50 (converted)
T1 construct: Human FXa (Enzyme Research Laboratories, South Bend, Indiana, United States of America); purchased Enzyme Research Laboratories
Description: Human FXa (Enzyme Research Laboratories, South Bend, Indiana, United States of America) was diluted in phosphate buffered saline (PBS) to 50 U/mL. Antithrombin was diluted to 0.03 mg/mL in PBS with 1 mg/mL of bovine serum albumin (BSA). The chromogenic substrate, S-2765 (Diapharma, Westchester, Ohio, United States of America) was diluted to 1 mg/mL in water. Heparin oligosaccharides were dissolved in PBS at various concentrations (7 to 3600 ng/mL). A reaction mixture including 60 μL of antithrombin and 24 μL of a solution containing a heparin oligosaccharide was incubated at room temperature for 3 min. FXa (100 μL) was then added, which was followed after a 2 min incubation at room temperature by the addition of 30 μL of chromogenic substrate, S-2765. The absorbance of the mixture was measured at 405 nm for 5 min and plotted against reaction time. The initial reaction rate as a function of oligosaccharide concentration was used to calculate IC50.

[2] = target: T2, Recombinant heparanase (Homo sapiens, UniProt Q9Y251); assay: Incubation of heparin oligosaccharides with recombinant heparanase, HPLC and LC-MS analysis; format: in vitro ADME; conditions: overnight incubation with heparanase, 37° C., pH 6.0
T2 construct: made in house; host or cells: insect cells (baculovirus expression system)
T2 sequence (Q9Y251 158-543 limits assumed): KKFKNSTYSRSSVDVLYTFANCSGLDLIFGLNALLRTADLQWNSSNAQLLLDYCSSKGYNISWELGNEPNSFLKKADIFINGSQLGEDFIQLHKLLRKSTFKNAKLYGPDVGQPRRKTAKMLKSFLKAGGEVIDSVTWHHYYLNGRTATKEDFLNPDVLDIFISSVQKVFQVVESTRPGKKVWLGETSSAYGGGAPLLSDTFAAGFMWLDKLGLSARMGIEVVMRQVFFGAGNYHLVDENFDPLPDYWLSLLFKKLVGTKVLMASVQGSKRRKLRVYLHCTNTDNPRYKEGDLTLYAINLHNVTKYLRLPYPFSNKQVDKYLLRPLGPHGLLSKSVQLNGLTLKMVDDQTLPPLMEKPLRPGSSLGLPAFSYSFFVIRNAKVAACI
T2 sequence (Q9Y251 36-109 limits assumed): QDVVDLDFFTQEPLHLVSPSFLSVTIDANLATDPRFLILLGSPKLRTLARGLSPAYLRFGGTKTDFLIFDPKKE
Description: Recombinant heparanase was expressed in insect cells using the baculovirus expression system and purified by a heparin-Sepharose column, as previously described (40). Heparin oligosaccharides, HS 6-mer (20 μg) or HR 7-mer (20 μg), were incubated overnight at 37° C. in 250 μL of MES (50 mM, pH 6.0) in the presence of heparanase (2 μg for 1× heparanase digestion, or 20 μg for 10× heparanase digestion).
High performance liquid chromatography (HPLC) analysis was conducted with a strong anion exchange column (Propac™ PA1 column, 10 μm, 9 mm×250 mm, Thermo Fisher, Waltham, MA) using a Shimadzu Prominence UFLC20A system (Shimadzu Corporation, Columbia, MD) with a UV detector set at 310 nm. A linear gradient was used for analytical purposes and included a solvent A: 20 mM NaAcO (pH 5.0); and solvent B: 2 M NaCl with 20 mM NaAcO (pH 5.0): 0-3 min: 0-80% B, 3.1-23 min: 80-100% B at a flow rate of 2 mL/min. A total of 5-10 μg of oligosaccharides was injected per run.
LC-MS/MS analysis of heparanse digested oligosaccharides was implemented on a Vanquish Flex UHPLC system (Thermo Fisher, Waltham, MA) coupled with a TSQ Fortis triple-quadrupole mass spectrometer. The ACQUITY Glycan BEH Amide column ([…], 2.1×150 mm; Waters) was used at 60° C. The mobile phase A was 50 mM ammonium formate in water (pH 4.4) and mobile phase B was acetonitrile. […]

[3] = target: T3, bovine FXa; assay: ACTICHROME heparin activity assay, FXa inhibition with human antithrombin; format: biochemical; conditions: ACTICHROME kit, read-out: FXa activity, calculated 50% inhibitory concentration (IC50) (converted)
T3 construct: purchased BioMedica Diagnostics
Description: Data shown as mean standard deviation. Briefly, varying concentrations of HR 7-mer, enoxaparin, and fondaparinux were prepared in phosphate-buffered saline (PBS). A total of 5 microliters (μL) of each sample was added to each well, followed by the addition of 40 μL of human antithrombin for 2 minutes (min) at 37 degrees Celsius (° C.). A total of 40 μL of bovine FXa stock solution was then added and incubated for 1 min at 37° C., followed by the addition of 40 μL of chromogenic substrate sold under the tradename SPECTROZYME® FXa (BioMedica Diagnostics, Windsor, Canada). After a 5 min incubation period at 37° C., the reaction was terminated by the addition of 40 μL of glacial acetic acid. Absorbance was measured at 405 nanometers (nm) and results presented as percent inhibition of FXa activity.

[4] = test system: non-occlusive venous thrombosis; assay: Murine model of non-occlusive venous thrombosis (electrolytic injury of the inferior vena cava); format: in vivo, C57BL/6 mice
Description: Heparin-based drug efficacy was evaluated in a preclinical mouse model of non-occlusive venous thrombosis (46). HR 7-mer was administered subcutaneously (12 μg/g, n=5) to male C57BL/6 mice (8-12 weeks of age) 1 hour prior to electrolytic injury and 24 hours after injury. Enoxaparin was administered subcutaneously (4 μg/g, n=5) 4 hours prior and 24 hours after electrolytic injury as a clinically relevant reference and an additional control group enrolled with saline vehicle administered subcutaneously (n=6). […] Venous side branches were ligated or cauterized, while posterior branches were left patent. A 25-gauge stainless steel needle, attached to a silver-coated copper wire was inserted into the exposed caudal vena cava and positioned against the anterior wall (anode). A second wire was implanted subcutaneously to complete the circuit (cathode) and a 250 μAmps current applied for 15 min. Subsequently, the needle was removed and a cotton swab held in gentle contact with the puncture site to prevent bleeding. The vena cava and associated thrombus, immediately below the renal veins to just above the bifurcation, was excised 48 hours after injury for determination of wet thrombus weight.

[5] = test system: tail vein bleeding; assay: Tail vein transection bleeding time; format: in vivo, C57BL/6 mice
Description: The effect of test drug on bleeding time was assessed in a murine tail vein transection model (46). Sterile saline (n=5), HR 7-mer (12 μg/g, n=5) or enoxaparin (4 μg/g, n=7) was administered subcutaneously. Mice were anesthetized with ketamine and xylazine by intraperitoneal injection and placed on a warming mat at 37° C. Either 1 hour or 4 hours after administration of HR 7-mer or enoxaparin, respectively, the lateral tail vein was transected with a number 11 scalpel blade at a tail width of 2.3 mm and immediately submerged in PBS at 37° C. The bleeding time was determined at that instant when bleeding had ceased for 30 seconds. Animals were excluded if arterial bleeding was present.

T1 sequence (P01008 33-464): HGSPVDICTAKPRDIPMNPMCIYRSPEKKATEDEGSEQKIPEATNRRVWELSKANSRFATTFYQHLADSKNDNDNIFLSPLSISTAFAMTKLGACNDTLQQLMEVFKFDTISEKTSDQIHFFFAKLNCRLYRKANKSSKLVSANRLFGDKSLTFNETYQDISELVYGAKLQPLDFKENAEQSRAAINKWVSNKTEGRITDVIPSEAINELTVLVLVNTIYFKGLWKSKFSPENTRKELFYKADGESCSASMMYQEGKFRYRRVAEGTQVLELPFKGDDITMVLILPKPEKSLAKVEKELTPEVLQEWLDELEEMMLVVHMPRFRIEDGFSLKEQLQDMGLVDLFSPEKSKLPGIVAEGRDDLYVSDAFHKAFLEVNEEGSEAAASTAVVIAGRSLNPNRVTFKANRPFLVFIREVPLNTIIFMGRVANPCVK
T3 sequence (P01008 33-464): as above

| anti-FXa activity after incubation with heparanase [1] | IC50 [1] | IC50 [3] | bleeding time ([5]; enoxaparin 4 μg/g SC, 4 hours, HR 7-mer 12 μg/g SC, 1 hour, saline vehicle 81±3 sec) | Avg. bleeding time ([5]; enoxaparin 4 μg/g, 4 hr pre, SC, HR 7-mer 12 μg/g, 1 hr pre) | Compound | susceptibility to heparanase mediated degradation (HPLC, LC-MS) [2] | reduction in thrombus formation as compared to saline vehicle ([4]; 48 hours after injury, HR 7-mer 12 μg/g SC 1 hour prior and 24 hours after, enoxaparin 4 μg/g SC 4 hours prior and 24 hours after) | Avg. IVC weight ([4]; wet thrombus weight 48 hours after injury, enoxaparin 4 μg/g, 4 hr pre, SC, HR 7-mer 12 μg/g, 1 hr pre, SC) |
| --- | --- | --- | --- | --- | --- | --- | --- | --- |
| preservation of anti-FXa activity | 193 nM | – | – | – | O=C(O)C1OC(Oc2ccc([N+](=O)[O-])cc2)C(O)C(O)C1OC1OC(COS(=O)(=O)O)C(OC2OC(C(=O)O)C(OC3OC(COS(=O)(=O)O)C(OC4OC(C(=O)O)C(OC5OC(COS(=O)(=O)O)C(O)C(O)C5NS(=O)(=O)O)C(O)C4OS(=O)(=O)O)C(OS(=O)(=O)O)C3NS(=O)(=O)O)C(O)C2OS(=O)(=O)O)C(O)C1NS(=O)(=O)O (stereo not drawn) [Compound 6-mer-D] | – | – | – |
| completely lost | 21.2 nM and 21 nM | – | – | – | O=C(O)C1OC(OC2C(COS(=O)(=O)O)OC(OC3C(C(=O)O)OC(OC4C(COS(=O)(=O)O)OC(OC5C(C(=O)O)OC(Oc6ccc([N+](=O)[O-])cc6)C(O)C5O)C(NS(=O)(=O)O)C4O)C(OS(=O)(=O)O)C3O)C(NS(=O)(=O)O)C2OS(=O)(=O)O)C(O)C(O)C1OC1OC(COS(=O)(=O)O)C(O)C(O)C1NS(=O)(=O)O (stereo not drawn) [HS 6-mer, reference compound] | cleavage of the -[GlcA-GlcNS3S6S]- disaccharide to afford a tetrasaccharide (4-mer-D) | – | – |
| – | 95.7 nM and 96 nM | 3870 nM | 143 ± 18 s | 143 ± 18 s | O=C(O)C1OC(OC2C(COS(=O)(=O)O)OC(OC3C(C(=O)O)OC(OC4C(COS(=O)(=O)O)OC(OC5C(C(=O)O)OC(OC6C(COS(=O)(=O)O)OC(OC7C(C(=O)O)OC(Oc8ccc([N+](=O)[O-])cc8)C(O)C7O)C(NS(=O)(=O)O)C6O)C(OS(=O)(=O)O)C5O)C(NS(=O)(=O)O)C4OS(=O)(=O)O)C(OS(=O)(=O)O)C3O)C(NS(=O)(=O)O)C2O)C(O)C(O)C1O (stereo not drawn) [HR 7-mer] | loss of GlcA | 40.3±3.9% | 18.8 ± 1.2 mg |

— patent publication US20260234295A1, “ULTRALOW MOLECULAR WEIGHT HEPARIN” (The University of North Carolina at Chapel Hill, priority 2022, published 2026)
